Results taken from a compilation of properties of binary mixtures (doi:10.1007/s10953-022-01241-4).

Experiment: xn = mol fraction of the nth substance listed
Conditions: 100 kPa

C[P+](c1ccccc1)(c1ccccc1)c1ccccc1.[Br-] + OCCO
viscosity [mPa·s]
Conditions	293.15 K	298.15 K	303.15 K	308.15 K	313.15 K	318.15 K	323.15 K
x1 = 0.1	45.5	–	27.4	22.37	–	15.1	12.6
x1 = 0.13	56.5	43.3	33.8	27.1	21.86	18.05	14.94
x1 = 0.17	74.7	55.7	43.5	34.5	27.3	21.01	17.81
x1 = 0.2	100.6	74.5	56.2	43.3	34	27.2	21.91
x1 = 0.25	148.7	106.7	78.9	60	46.4	36.4	29
x1 = 0.33	225	158	–	85.5	–	50.5	39.6
